Measured values: patent US8211901B2, “Naphthamide derivatives as multi-target protein kinase inhibitors and histone deacetylase inhibitors” (Shenzhen Chipscreen Biosciences Ltd., priority 2009, dated 2012)

Columns and labels:
Type in all cases: in vivo, nu/nu mice
[1] = Body weight in HCT-8 xenograft study (Example 52)
Experimental: (§1) The antitumor activity of compound 31 was measured in human HCT-8 colon cancer xenograft model. The female nu/nu mice of 18˜20 g were fed by normal diet for 3 days. Then the cultured HCT-8 human colon cancer cells were implanted into the armpit of 50 mice. When tumors had reached approximately 100 mm^3, the mice were divided into 6 groups randomly. Each group has 8 mice. One group was treated with vehicle. One group was treated with sutent, the positive control drug. […] Each group was dosed orally once a day for 20 days. Tumor volumes as established by caliper measurements were recorded twice per week, along with body weights. At the end of study, the mice were killed, and tumors were weighed. The tumor growth inhibition of each group was calculated using the formula {[(the average tumor weight of vehicle group)−(the average tumor weight of drug group)]/(the average tumor weight of vehicle group)}×100%.

[2] = Body weight in SSMC7721 xenograft study (Example 53)
Experimental: as §1, with “human SSMC7721 liver” for “human HCT-8 colon”, “cultured SSMC7721” for “cultured HCT-8”, “human liver” for “human colon”, “mice. […]” for “mice. When tumors had reached approximately 100 mm^3, the mice were divided into 6 groups randomly. Each group has 8 mice.”, “for 30” for “for 20”

[3] = tested on: human SSMC7721 liver cancer xenograft; experiment: Antitumor activity of compound 31, SSMC7721 xenograft (Example 53)
Experimental: as §1, with “human SSMC7721 liver” for “human HCT-8 colon”, “cultured SSMC7721” for “cultured HCT-8”, “human liver” for “human colon”, “mice. […]” for “mice. When tumors had reached approximately 100 mm^3, the mice were divided into 6 groups randomly. Each group has 8 mice.”, “for 30” for “for 20”

[4] = Body weight in HCT-8 xenograft study (Example 54)
Experimental: (§2) The antitumor activity of compound 33 and compound 34 were measured in human HCT-8 colon cancer xenograft model. The female nu/nu mice of 18˜20 g were fed by normal diet for 3 days. Then the cultured HCT-8 human colon cancer cells were implanted into the armpit of 50 mice. When tumors had reached approximately 100 mm^3, the mice were divided into 6 groups randomly. Each group has 8 mice. One group was treated with vehicle. One group was treated with sutent, the positive control drug. Two groups were treated with compound 33. The other two groups were treated with compound 34. Each group was dosed orally once a day for 20 days. Tumor volumes as established by caliper measurements were recorded twice per week, along with body weights. At the end of study, the mice were killed, and tumors were weighed. The tumor growth inhibition of each group was calculated using the formula {[(the average tumor weight of vehicle group)−(the average tumor weight of drug group)]/(the average tumor weight of vehicle group)}×100%.

[5] = Body weight in HCT-8 xenograft study (Example 55)
Experimental: as §2, with “37” for “34”, “When tumors had reached approximately 100 mm^3, the mice were divided into 6 groups randomly. Each group has 8 mice.” left out, “37. Compound 33 was administered twice a day with an interval of 6 hours. Other drugs and vehicle were administered once a day.” for “34.”, “orally” for “orally once a day”

[6] = Body weight in SSMC7721 xenograft study (Example 56)
Experimental: The antitumor activity of compound 33 and compound 37 were measured in human SSMC7721 liver cancer xenograft model. The female nu/nu mice of 18˜20 g were fed by normal diet for 3 days. Then the cultured SSMC7721 human liver cancer cells were implanted into the armpit of 50 mice. […] Each group has 8 mice. One group was treated with vehicle. One group was treated with sutent, the positive control drug. Two groups were treated with compound 33. The other two groups were treated with compound 37. Each group was dosed orally once a day for 30 days. Tumor volumes as established by caliper measurements were recorded twice per week, along with body weights. At the end of study, the mice were killed, and tumors were weighed. The tumor growth inhibition of each group was calculated using the formula {[(the average tumor weight of vehicle group)−(the average tumor weight of drug group)]/(the average tumor weight of vehicle group)}×100%.

[7] = 2.5 mg/kg orally once a day for 20 days
[8] = 5 mg/kg orally once a day for 20 days
[9] = 10 mg/kg orally once a day for 20 days
[10] = 20 mg/kg orally once a day for 20 days
[11] = 2.5 mg/kg orally once a day for 30 days
[12] = 5 mg/kg orally once a day for 30 days
[13] = 10 mg/kg orally once a day for 30 days
[14] = 20 mg/kg orally once a day for 30 days
[15] = 30 mg/kg orally once a day for 20 days
[16] = 60 mg/kg orally once a day for 20 days
[17] = 30 × 2 mg/kg orally twice a day with an interval of 6 hours for 20 days
[18] = 60 × 2 mg/kg orally twice a day with an interval of 6 hours for 20 days
[19] = 30 mg/kg orally once a day for 30 days
[20] = 60 mg/kg orally once a day for 30 days

## COc1ccc2c(Oc3ccc4c(C(=O)Nc5ccccc5N)cccc4c3)ccnc2c1 [Example 31, N-(2-aminophenyl)-6-(7-methoxyquinolin-4-yloxy)-1-naphthamide]
[1]; [7]
  Body weight (g) end: 24.5 ± 1.1 g
  Body weight (g) start: 20.3 ± 0.8 g
[1]; [8]
  Body weight (g) end: 24.8 ± 1.5 g
  Body weight (g) start: 21.6 ± 1.4 g
[1]; [9]
  Body weight (g) end: 23.7 ± 0.8 g
  Body weight (g) start: 20.7 ± 1.1 g
[1]; [10]
  Body weight (g) end: 22.5 ± 1.6 g
  Body weight (g) start: 20.5 ± 1.3 g
[2]; [11]
  Body weight (g) end: 23.2 ± 2.1 g
  Body weight (g) start: 20.1 ± 0.9 g
[2]; [12]
  Body weight (g) end: 24.8 ± 1.5 g
  Body weight (g) start: 20.8 ± 1.2 g
[2]; [13]
  Body weight (g) end: 23.6 ± 1.5 g
  Body weight (g) start: 20.4 ± 1.6 g
[2]; [14]
  Body weight (g) end: 21.0 ± 2.2 g
  Body weight (g) start: 20.2 ± 1.7 g
[3]; [11]
  TGI (%) Tumor growth inhibition: 51.7%
  Tumor weight: 1.63 ± 0.70 g
[3]; [12]
  TGI (%) Tumor growth inhibition: 65.4%
  Tumor weight: 1.16 ± 0.55 g
[3]; [13]
  TGI (%) Tumor growth inhibition: 79.2%
  Tumor weight: 0.70 ± 0.45 g
[3]; [14]
  TGI (%) Tumor growth inhibition: 84.4%
  Tumor weight: 0.53 ± 0.28 g

## COc1ccc2c(Oc3ccc4c(C(=O)NCc5ccc(C(=O)Nc6ccccc6N)cc5)cccc4c3)ccnc2c1 [Example 33, N-(4-((2-aminophenyl)carbamoyl)benzyl)-6-(7-methoxyquinolin-4-yloxy)-1-naphthamide]
[4]; [15]
  Body weight (g) end: 21.1 ± 2.2 g
  Body weight (g) start: 19.0 ± 1.3 g
[4]; [16]
  Body weight (g) end: 21.4 ± 1.5 g
  Body weight (g) start: 19.4 ± 0.8 g
[5]; [17]
  Body weight (g) end: 22.6 ± 1.6 g
  Body weight (g) start: 21.1 ± 1.2 g
[5]; [18]
  Body weight (g) end: 19.0 ± 1.8 g
  Body weight (g) start: 20.1 ± 0.9 g
[6]; [19]
  Body weight (g) end: 24.0 ± 1.7 g
  Body weight (g) start: 20.8 ± 0.5 g
[6]; [20]
  Body weight (g) end: 25.4 ± 2.8 g
  Body weight (g) start: 21.4 ± 1.3 g
